# Experimental data: US20080292619A1, “Pharmaceutical Composition Containing Meltrin Antagonist” (MOCHIDA PHARMACEUTICAL CO., LTD., priority 2004, published 2008)
# In the oligonucleotide strings, read from the 5' end, every base follows the letter of its sugar. An asterisk marks phosphorothioate; unmarked linkages are phosphodiester. Other units and linkages are bracketed, terminal groups are in braces. A string of capitals states the bases alone. d = 2'-deoxy (DNA)
# Test system: human preadipocyte
# Assay: Effect of antisense compound on adipocyte proliferation and differentiation (Adipo Red)
# Type: cell-based
# Conditions: 300 nM; human preadipocyte
# Protocol: First, human preadipocyte (Human Preadipocytes-sq POIETICS #PT-5020, Sanko Junyaku Co., Ltd.) was suspended in growth medium (#PT-8200, Sanko Junyaku Co., Ltd.), and after adding the suspension to a 96 well culture plate at 1×10^4 cells/well/100 μL, the cells were cultured overnight at 37° C. in the presence of 5% CO2.
# The preadipocyte was cultured overnight, and after washing the preadipocyte twice with serum-free DMEM, Opti-MEM was added at 80 μL/well.
# Gene transfection reagent Lipofectin was diluted with Opti-MEM to 20 μg/mL, and the dilution was allowed to stand at room temperature for 30 minutes. Next, the antisense oligodeoxynucleotide synthesized as described above was heated at 90° C. for 3 minutes, and after quenching on ice, diluted with Opti-MEM to a concentration 10 times higher than the final concentration. Equal amounts of the Lipofectin in Opti-MEM and the antisense oligodeoxynucleotide in Opti-MEM were mixed, and the mixture was incubated at room temperature for 15 minutes and added to 96 well plate at 20 μL/well. After incubating at 37° C. for 4 hours in the presence of 5% CO2, it was used for examination as described below.
# The differentiation medium was prepared by using growth medium (#PT-8200, Sanko Junyaku Co., Ltd.) and supplement kit (PGM Single Quots, #PT-9500, Sanko Junyaku Co., Ltd.) according to the instruction of the kit. Next, the culture supernatant containing the Lipofectin was removed from the 96 well plate prepared in the above (2), and the plate was washed twice with serum-free DMEM, and the differentiation medium prepared as described above was added at 100 μL/well. The plate was then incubated at 37° C. for 5 days to 15 days in the presence of 5% CO2.
# Accumulation of the neutral fat in the adipocyte was determined by fluorometry using Adipo Red stain.
# After taking the 96 well plate out of the CO2 incubator, the plate was allowed to stand until it reached room temperature. The plate was centrifuged at 300 g (1200 rpm) for 10 minutes at room temperature to remove the medium. Next, after gently washing with PBS (SIGMA) at 200 μL/well, PBS was added to the well at 200 μL/well. Next, Adipo Red Assay Reagent (Adipo Red, Cat. #PT-7009, Lot.3F0497, A Cambrex Company) was added at 5 μL/well, and the plate was allowed to stand at room temperature for at least 10 minutes to thereby stain the neutral fat accumulated in the adipocyte. The fat accumulation was determined by measuring fluorescence intensity in a fluorometer at an excitation wavelength of 485 nm and an emission wavelength of 535 nm.
# The suppression rate of the adipocyte differentiation was calculated by converting the fluorescence intensity of the well transfected with the antisense compound in relation to the fluorescence intensity of the well without transfection with the antisense compound which was assumed as 100%. The result was rated “+” when the suppression rate was at least 25%, “++” when the suppression rate was at least 50%, and “+++” when the suppression rate was at least 75%.
row,Substance,Supression of adipose differentiation 300 nM
1,5 (dG*dT*dT*dT*dG*dG*dC*dT*dT*dA*dC*dA*dG*dG*dT*dC*dC*dC*dC*dT) [compound 5],++ (“++” when the suppression rate was at least 50%)

# Same assay, conditions: human adipocyte differentiation
row,Substance,Score (suppressing the human adipocyte differentiation)
1,"H135 + 15: gggtctgctgatgtcaacat (GGGTCTGCTGATGTCAACAT; antisense; DNA, all phosphorothioate, methylation of C not given here)",+ (“+” when the suppression rate was at least 25%)

# Test system: human meltrin α RNA
# Assay: Suppression of human meltrin α expression by antisense compound in RD cell (real time PCR)
# Type: cell-based
# Conditions: 50 nM; RD cell
# In short: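 RD cells transfected with heat-denatured antisense oligodeoxynucleotide plus Lipofectin in Opti-MEM for 4 h at 37° C, then cultured 18 h. Meltrin α RNA quantified by TaqMan RT-PCR against plasmid standard curve, GAPDH-corrected; suppression vs untreated cells, rated +/++/+++ for ≥30/50/70%.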
row,Substance,"Supression of expression, 50 nM"
1,5 (dG*dT*dT*dT*dG*dG*dC*dT*dT*dA*dC*dA*dG*dG*dT*dC*dC*dC*dC*dT) [compound 5],++ (“++” when the suppression rate was at least 50%)

# Same assay, conditions: 50 nM; RD cell; corrected by GAPDH
row,Substance,"suppression rate of expression, 50 nM"
1,H196: agggaggtggcggtttgcag (dA*dG*dG*dG*dA*dG*dG*dT*dG*dG*dC*dG*dG*dT*dT*dT*dG*dC*dA*dG; antisense),+ (“+” when the suppression rate was at least 30%)
2,H219: ttcaaggggatgctgcccaa (dT*dT*dC*dA*dA*dG*dG*dG*dG*dA*dT*dG*dC*dT*dG*dC*dC*dC*dA*dA; antisense),+ (“+” when the suppression rate was at least 30%)

# Same assay, conditions: 200 nM; RD cell; corrected by GAPDH
row,Substance,"suppression rate of expression, 200 nM"
1,H178: ctccctgaaagccaaacaca (dC*dT*dC*dC*dC*dT*dG*dA*dA*dA*dG*dC*dC*dA*dA*dA*dC*dA*dC*dA; antisense),+ (“+” when the suppression rate was at least 30%)
2,H179: gttgtcaaggggcacagggc (dG*dT*dT*dG*dT*dC*dA*dA*dG*dG*dG*dG*dC*dA*dC*dA*dG*dG*dG*dC; antisense),++ (“++” when the suppression rate was at least 50%)
3,H180: ccctgggagcctgcctgcca (dC*dC*dC*dT*dG*dG*dG*dA*dG*dC*dC*dT*dG*dC*dC*dT*dG*dC*dC*dA; antisense),++ (“++” when the suppression rate was at least 50%)
4,H181: gccagatttctcccaggtgt (dG*dC*dC*dA*dG*dA*dT*dT*dT*dC*dT*dC*dC*dC*dA*dG*dG*dT*dG*dT; antisense),++ (“++” when the suppression rate was at least 50%)
5,H182: ccaaagcttcctggccagaa (dC*dC*dA*dA*dA*dG*dC*dT*dT*dC*dC*dT*dG*dG*dC*dC*dA*dG*dA*dA; antisense),++ (“++” when the suppression rate was at least 50%)
6,H183: gtctgcaacccaggttctca (dG*dT*dC*dT*dG*dC*dA*dA*dC*dC*dC*dA*dG*dG*dT*dT*dC*dT*dC*dA; antisense),++ (“++” when the suppression rate was at least 50%)
7,H184: ggctacaccttaagattcct (dG*dG*dC*dT*dA*dC*dA*dC*dC*dT*dT*dA*dA*dG*dA*dT*dT*dC*dC*dT; antisense),+ (“+” when the suppression rate was at least 30%)
8,H187: ggctggtcagctcagggtca (dG*dG*dC*dT*dG*dG*dT*dC*dA*dG*dC*dT*dC*dA*dG*dG*dG*dT*dC*dA; antisense),+++ (“+++” when the suppression rate was at least 70%)
9,H188: ccccttccaaacatgctcac (dC*dC*dC*dC*dT*dT*dC*dC*dA*dA*dA*dC*dA*dT*dG*dC*dT*dC*dA*dC; antisense),+ (“+” when the suppression rate was at least 30%)
10,H189: gccttgagtgacactacaga (dG*dC*dC*dT*dT*dG*dA*dG*dT*dG*dA*dC*dA*dC*dT*dA*dC*dA*dG*dA; antisense),+ (“+” when the suppression rate was at least 30%)
11,H195: tgcctgggcagtaggtttct (dT*dG*dC*dC*dT*dG*dG*dG*dC*dA*dG*dT*dA*dG*dG*dT*dT*dT*dC*dT; antisense),++ (“++” when the suppression rate was at least 50%)
12,H196: agggaggtggcggtttgcag (dA*dG*dG*dG*dA*dG*dG*dT*dG*dG*dC*dG*dG*dT*dT*dT*dG*dC*dA*dG; antisense),+++ (“+++” when the suppression rate was at least 70%)
13,H197: tgctcagctccaagcagtat (dT*dG*dC*dT*dC*dA*dG*dC*dT*dC*dC*dA*dA*dG*dC*dA*dG*dT*dA*dT; antisense),++ (“++” when the suppression rate was at least 50%)
14,H210: ccccatagagaaggttcttt (dC*dC*dC*dC*dA*dT*dA*dG*dA*dG*dA*dA*dG*dG*dT*dT*dC*dT*dT*dT; antisense),++ (“++” when the suppression rate was at least 50%)
15,H217: ggaagttgataagcaagttg (dG*dG*dA*dA*dG*dT*dT*dG*dA*dT*dA*dA*dG*dC*dA*dA*dG*dT*dT*dG; antisense),+++ (“+++” when the suppression rate was at least 70%)
16,H219: ttcaaggggatgctgcccaa (dT*dT*dC*dA*dA*dG*dG*dG*dG*dA*dT*dG*dC*dT*dG*dC*dC*dC*dA*dA; antisense),+++ (“+++” when the suppression rate was at least 70%)

row,Substance,"suppression rate of expression, 200 nM"
1,H221: gaaacatggctccctagtca (dG*dA*dA*dA*dC*dA*dT*dG*dG*dC*dT*dC*dC*dC*dT*dA*dG*dT*dC*dA; antisense),+ (“+” when the suppression rate was at least 30%)
2,H225: aagacagaggcatcatggca (dA*dA*dG*dA*dC*dA*dG*dA*dG*dG*dC*dA*dT*dC*dA*dT*dG*dG*dC*dA; antisense),+++ (“+++” when the suppression rate was at least 70%)
3,H229: aaagaaggctttctcataaa (dA*dA*dA*dG*dA*dA*dG*dG*dC*dT*dT*dT*dC*dT*dC*dA*dT*dA*dA*dA; antisense),+ (“+” when the suppression rate was at least 30%)
4,H230: taggaaaactgttgacccca (dT*dA*dG*dG*dA*dA*dA*dA*dC*dT*dG*dT*dT*dG*dA*dC*dC*dC*dC*dA; antisense),++ (“++” when the suppression rate was at least 50%)
5,H233: agttttgttttctggaaggc (DNA dA*dG*dT*dT*dT*dT*dG*dT*dT*dT*dT*dC*dT*dG*dG*dA*dA*dG*dG*dC; antisense),+ (“+” when the suppression rate was at least 30%)
6,H234: acaccgggaaagtgaaatgc (DNA dA*dC*dA*dC*dC*dG*dG*dG*dA*dA*dA*dG*dT*dG*dA*dA*dA*dT*dG*dC; antisense),++ (“++” when the suppression rate was at least 50%)
7,H235: ttgcctagatacagtgggga (DNA dT*dT*dG*dC*dC*dT*dA*dG*dA*dT*dA*dC*dA*dG*dT*dG*dG*dG*dG*dA; antisense),++ (“++” when the suppression rate was at least 50%)
8,H237: gtgtcacgtgtttagtttat (DNA dG*dT*dG*dT*dC*dA*dC*dG*dT*dG*dT*dT*dT*dA*dG*dT*dT*dT*dA*dT; antisense),+ (“+” when the suppression rate was at least 30%)
9,H239: ttggaatgtattagagctgg (DNA dT*dT*dG*dG*dA*dA*dT*dG*dT*dA*dT*dT*dA*dG*dA*dG*dC*dT*dG*dG; antisense),+ (“+” when the suppression rate was at least 30%)
10,H240: acagatgcatgctatacgag (DNA dA*dC*dA*dG*dA*dT*dG*dC*dA*dT*dG*dC*dT*dA*dT*dA*dC*dG*dA*dG; antisense),++ (“++” when the suppression rate was at least 50%)
11,H243: cagcagtattattttccagc (DNA dC*dA*dG*dC*dA*dG*dT*dA*dT*dT*dA*dT*dT*dT*dT*dC*dC*dA*dG*dC; antisense),+ (“+” when the suppression rate was at least 30%)
12,H247: aacctttttaatagtatata (DNA dA*dA*dC*dC*dT*dT*dT*dT*dT*dA*dA*dT*dA*dG*dT*dA*dT*dA*dT*dA; antisense),+ (“+” when the suppression rate was at least 30%)
13,H249: aaaaagacaatgcccacgta (DNA dA*dA*dA*dA*dA*dG*dA*dC*dA*dA*dT*dG*dC*dC*dC*dA*dC*dG*dT*dA; antisense),++ (“++” when the suppression rate was at least 50%)
14,H250: atctaaggatttgggcatct (DNA dA*dT*dC*dT*dA*dA*dG*dG*dA*dT*dT*dT*dG*dG*dG*dC*dA*dT*dC*dT; antisense),+ (“+” when the suppression rate was at least 30%)
15,H251: aggaagggctaacatgccag (DNA dA*dG*dG*dA*dA*dG*dG*dG*dC*dT*dA*dA*dC*dA*dT*dG*dC*dC*dA*dG; antisense),+++ (“+++” when the suppression rate was at least 70%)
